Data as given in patent publication US8664407B2, “Chemical linkers with single amino acids and conjugates thereof” (Medarex, LLC, priority 2007, dated 2014).

Tests used:
[1] = biological target: T1, bovine spleen cathepsin B (Bos taurus, UniProt P07688); assay: Cathepsin B mediated cleavage of single amino acid linkers (RP-HPLC, A340); type: biochemical; conditions: cysteine modified compound, activated cathepsin B, pH 5.0, 37° C.
T1 construct: bovine spleen cathepsin B (Sigma product code C-6286) was prepared by dissolving lyophilized solid; purchased Sigma C-6286; host or cells: bovine spleen (tissue-derived)
Method: (§1) A panel of single amino acid compounds, each differing with respect to amino acid composition but of otherwise similar structure, was assayed for cathepsin B activity. The following compounds were tested: compounds A,B,C,D,E and F. The appearance of cathepsin B-mediated products was monitored by application to RP-HPLC with quantitation of drug products by their absorbance at 340 nm.
(§2) Cathepsin B Enzyme Assay: A stock solution of bovine spleen cathepsin B (Sigma product code C-6286) was prepared by dissolving lyophilized solid (6 mg at 56% protein) in 25 mM sodium acetate/1 mM EDTA pH 5.0 buffer (10 mL). Enzyme activation was accomplished by mixing the stock solution (50 uL) with activation buffer (100 ul) comprised of 30 mM DTT/15 mM EDTA, followed by incubation at room temperature for 15 minutes. The activated cathepsin B was diluted 1:1 with a solution of 25 mM sodium acetate/1 mM EDTA, pH 5.0 prior to use. To assay for drug release, cysteine modified compound (4 uL of 2.5 mM solution in DMSO) was added to 25 mM sodium acetate/1 mM EDTA pH 5.0 buffer (86 uL) and activated cathepsin B (10 uL at 3.6 U/mL). Samples were incubated at 37° C. for appropriate time points and stopped with methanol (100 uL).
(§3) Compounds samples (40 uL) were applied to a Waters 2795 HPLC system fitted with a reverse phase column (Waters Nova-pak C18, 3.9×150 mm column, product code WAT086344). Sample chromatography was accomplished using a dual mobile phase system comprised of water/0.1% TFA (A buffer) and acetonitrile/0.1% TFA (B buffer) with a gradient elution of 10-100% B buffer over 20 min at 1.0 mL/min. compounds were detected by its absorbance at 340 nm (A340).

cathepsin B = biological target: T2, cathepsin B (Bos taurus, UniProt P07688); assay: as above; type: biochemical, bovine; conditions: bovine, activated bovine spleen cathepsin B (isolated enzyme), cysteine modified compound, pH 5.0, 37° C., read-out: Approx. substrate half-life (converted)
T2 construct: bovine spleen cathepsin B (Sigma product code C-6286) was prepared by dissolving lyophilized solid; purchased Sigma C-6286; host or cells: bovine spleen (tissue-derived)
Method: as §1, §2, §3

786-O = assay: In vivo study: 786-O tumor xenograft, toxin-conjugated anti-CD70 HuMAb 2H5; conditions: 0.03 μmol toxin dosage, IP, dosed on Day 0; CD70.1 antibody conjugates; 786-O tumors in male CB17.SCID mice
Method: 786-O (ATCC Accession No. CRL-1932) cells were expanded in vitro using standard laboratory procedures. Male CB17.SCID mice (Taconic, Hudson, N.Y.) between 6-8 weeks of age were implanted subcutaneously in the right flank with 2.5 million 786-O in 0.2 ml of PBS/Matrigel (1:1) per mouse. Mice were weighed and measured for tumors three dimensionally using an electronic caliper twice weekly after implantation. Tumor volumes were calculated as height×width×length. Mice with tumors averaging 200 mm^3 were randomized into treatment groups. The mice were dosed intraperitoneally with PBS vehicle, toxin-conjugated isotype control antibody or toxin-conjugated anti-CD70 HuMAb 2H5 on Day 0. Each group contained 8 mice.
FIGS. 1, 2, 5, and 6 show the mean tumor volume versus days past dosing and FIGS. 3, 4, 7, and 8 show the median tumor volume versus days past dosing (0.03 μmol—FIGS. 1, 3, 5, and 7; 0.005 μmol—FIGS. 2, 4, 6, and 8).

## CN1CCN(C(=O)Oc2cc3c(c4ccccc24)[C@H](CCl)CN3C(=O)c2cc3cc(NC(=O)c4ccc(NC(=O)[C@H](CCCNC(N)=O)NC(=O)CCCCCN5C(=O)C=CC5=O)cc4)ccc3[nH]2)CC1 [Compound A]
[1]
  Cathepsin B cleavage: Yes
[1]; listed as compound A
  Cathepsin B cleavage: cleaved by cathepsin B
Cathepsin B
  half-life at 100 µM: ~24 h
786-O
  Efficacy (tumor volume versus days past dosing), descending order: Compound E>Compound F>Compound A>Compound C, Compound D>Compound B>Compound G

## CN1CCN(C(=O)Oc2cc3c(c4ccccc24)[C@H](CCl)CN3C(=O)c2cc3cc(NC(=O)c4ccc(NC(=O)[C@H](CCCNC(N)=O)NCCNC(=O)CCCCCN5C(=O)C=CC5=O)cc4)ccc3[nH]2)CC1 [Compound B]
[1]
  Cathepsin B cleavage: No
786-O
  Efficacy (tumor volume versus days past dosing), descending order: Compound E>Compound F>Compound A>Compound C, Compound D>Compound B>Compound G

## CN1CCN(C(=O)Oc2cc3c(c4ccccc24)[C@H](CCl)CN3C(=O)c2cc3c4c(ccc3[nH]2)N(C(=O)c2ccc(NC(=O)[C@H](CCCNC(N)=O)NC(=O)CCCCCN3C(=O)C=CC3=O)cc2)CC4)CC1 [Compound C]
[1]
  Cathepsin B cleavage: No
786-O
  Efficacy (tumor volume versus days past dosing), descending order: Compound E>Compound F>Compound A>Compound C, Compound D>Compound B>Compound G

## CN1CCN(C(=O)Oc2cc3c(c4ccccc24)[C@H](CCl)CN3C(=O)c2cc3cc(NC(=O)c4ccc(NC(=O)[C@H](CO)NC(=O)CCCN5C(=O)C=CC5=O)cc4)ccc3[nH]2)CC1 [Compound D]
[1]
  Cathepsin B cleavage: No
[1]; listed as compound D
  Cathepsin B cleavage: cleaved by cathepsin B
786-O
  Efficacy (tumor volume versus days past dosing), descending order: Compound E>Compound F>Compound A>Compound C, Compound D>Compound B>Compound G

## CN1CCN(C(=O)Oc2cc3c(c4ccccc24)[C@H](CCl)CN3C(=O)c2cc3cc(NC(=O)c4ccc(NC(=O)[C@H](CCCCN)NC(=O)CCCCCN5C(=O)C=CC5=O)cc4)ccc3[nH]2)CC1 [Compound E]
[1]
  Cathepsin B cleavage: Yes
Cathepsin B
  half-life at 100 µM: ~4 h
786-O
  Efficacy (tumor volume versus days past dosing), descending order: Compound E>Compound F>Compound A>Compound C, Compound D>Compound B>Compound G

## CN1CCN(C(=O)Oc2cc3c(c4ccccc24)[C@H](CCl)CN3C(=O)c2cc3cc(NC(=O)c4ccc(NC(=O)[C@H](CCC(=O)O)NC(=O)CCCCCN5C(=O)C=CC5=O)cc4)ccc3[nH]2)CC1 [Compound F]
[1]
  Cathepsin B cleavage: No
786-O
  Efficacy (tumor volume versus days past dosing), descending order: Compound E>Compound F>Compound A>Compound C, Compound D>Compound B>Compound G

## CN1CCN(C(=O)Oc2cc3c(c4ccccc24)[C@H](CCl)CN3C(=O)c2cc3cc(NC(=O)c4ccc(NCC(=O)NCCNC(=O)CCCN5C(=O)C=CC5=O)cc4)ccc3[nH]2)CC1 [Compound G]
786-O
  Efficacy (tumor volume versus days past dosing), descending order: Compound E>Compound F>Compound A>Compound C, Compound D>Compound B>Compound G
